Among the test systems are HS 578T breast; BT-549 breast; NCI-H23 lung; U251 CNS; HL-60(TB) leukemia; SF-539 CNS; SNB-75 CNS.
What all share (assay): growth of human tumour cells (NCI), 48 h

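All cell lines were grown in 96-well plates and treated with compound for 48 hours. Abbreviation: GI50, concentration required for 50% inhibition of growth. The concentration for full growth arrest is given as TGI.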

`COc1ccc(/C=C/C(=O)C(CC2CCC2)C(=O)/C=C/c2ccc(OC)c(OC)c2)cc1OC`: the GI50 is 3.19 µM in the assay with HS 578T breast; 1.54 µM in the assay on BT-549 breast; 2.19 µM in the assay on NCI-H23 lung; 1.38 µM in the assay on U251 CNS; 1.69 µM in the assay with HL-60(TB) leukemia; 1.71 µM in the assay with SF-539 CNS. Moreover, the GI50 in the assay with SNB-75 CNS is 1.32 µM. For the same compound, the TGI with HS 578T breast was above 100 µM; in the assay on BT-549 breast, 4.04 µM; in the assay on NCI-H23 lung, 5.87 µM; with U251 CNS it was 2.79 µM; with HL-60(TB) leukemia, 5.94 µM; with SF-539 CNS, 3.57 µM. Besides, the TGI in the assay with SNB-75 CNS is 2.74 µM.

Take `COc1cc(/C=C/c2cc(/C=C/c3ccc(O)c(OC)c3)n(C(=O)Nc3ccc(C)cc3C)n2)ccc1O`: the GI50 in the assay with HS 578T breast is 0.295 µM; in the assay with BT-549 breast it was 0.693 µM; in the assay with NCI-H23 lung it was 0.275 µM; with U251 CNS, 0.401 µM; in the assay on HL-60(TB) leukemia, 0.262 µM. In addition, the TGI in the assay with HS 578T breast was above 100 µM; in the assay on BT-549 breast, 16.8 µM; with NCI-H23 lung it was 1.25 µM; in the assay on U251 CNS it was 1.47 µM; in the assay on HL-60(TB) leukemia it was 0.801 µM.

For `COc1cccc2c(=O)c3c(sc12)c(N1CCNCC1)nc1ccccc13`, the GI50 in the assay with HS 578T breast is 1.7 µM; in the assay with BT-549 breast it was 13.3 µM; in the assay on NCI-H23 lung, 1.62 µM; in the assay on SF-539 CNS, 1.75 µM; in the assay with SNB-75 CNS, 1.56 µM. For the same compound, the TGI with HS 578T breast worked out at 3.71 µM; with BT-549 breast it was 27.5 µM; with NCI-H23 lung it was 3.1 µM; in the assay on SF-539 CNS it was 3.21 µM; in the assay on SNB-75 CNS it was 2.98 µM.

For `COc1ccc(CCN2COc3c([C@@H](C)CCC=C(C)C)ccc(C)c3C2)cc1OC`, the GI50 is 3.94 µM in the assay on HS 578T breast; 2.55 µM in the assay on NCI-H23 lung; 1.91 µM with U251 CNS; 4.11 µM with HL-60(TB) leukemia; 4.48 µM in the assay on SF-539 CNS; 12.5 µM with SNB-75 CNS. Besides, the TGI in the assay with HS 578T breast came to 17.3 µM; in the assay on NCI-H23 lung, 6.08 µM; with U251 CNS, 4.47 µM; in the assay on HL-60(TB) leukemia, 60.9 µM; in the assay on SF-539 CNS, 15.9 µM; with SNB-75 CNS it was 35.4 µM.

`C[C@]12CC[C@@H]3c4cc(OCC(F)(F)F)c(O)cc4/C(=N/O)C[C@H]3[C@@H]1CC[C@@H]2O`: the GI50 was 0.0787 µM with NCI-H23 lung and 0.031 µM in the assay with HL-60(TB) leukemia. The TGI in the assay with NCI-H23 lung is 12.7 µM; in the assay with U251 CNS it was 1.07 µM; with HL-60(TB) leukemia, above 100 µM; with SF-539 CNS, 0.0725 µM.

Turning to `CC(C)C[C@H](NC(=O)/C=C/Cn1ccc2ccccc2c1=O)B(O)O`, the GI50 was 5.03 µM with HS 578T breast; 2.67 µM in the assay on BT-549 breast; 5.87 µM in the assay with NCI-H23 lung; 2.95 µM with HL-60(TB) leukemia; 2.16 µM in the assay on SF-539 CNS; 3.2 µM with SNB-75 CNS. Further, the TGI in the assay with HS 578T breast is above 100 µM; in the assay with BT-549 breast, 13.7 µM; with NCI-H23 lung it was above 100 µM; in the assay with HL-60(TB) leukemia, above 100 µM; in the assay on SF-539 CNS, 6.45 µM; in the assay with SNB-75 CNS it was 16.3 µM.

With `COc1cc2[nH]c(C(=O)c3cc(OC)c(OC)c(OC)c3)c(N)c2cc1C#CC1CC1`, the GI50 is 3.75 µM in the assay with HS 578T breast; 7.12 µM with NCI-H23 lung; 4.74 µM with U251 CNS; 3.36 µM with HL-60(TB) leukemia; 0.815 µM in the assay on SF-539 CNS; 1.02 µM in the assay on SNB-75 CNS. The TGI in the assay with HS 578T breast is above 100 µM; in the assay on NCI-H23 lung, above 100 µM; in the assay with U251 CNS, above 100 µM; with HL-60(TB) leukemia, 22 µM; in the assay on SF-539 CNS it was 4.77 µM; in the assay on SNB-75 CNS, 3.99 µM.

For the compound `Cc1ccc(-c2nc3ccc(Cl)cc3c(=O)n2N2C(=O)CSC2c2ccccc2Cl)cc1` (stereo unspecified), the GI50 is 2.62 µM in the assay with HS 578T breast; above 100 µM in the assay on BT-549 breast; above 100 µM in the assay on NCI-H23 lung; 5.05 µM in the assay on U251 CNS; above 100 µM with SF-539 CNS; 1.39 µM in the assay on SNB-75 CNS. Moreover, the TGI is 17.2 µM with HS 578T breast; above 100 µM in the assay with BT-549 breast; above 100 µM in the assay on NCI-H23 lung; above 100 µM in the assay on U251 CNS; above 100 µM with SF-539 CNS; 4.74 µM in the assay on SNB-75 CNS.

For `C=C1CCC(CC[C@@H]2CC[C@]3(OC2)O[C@@]2(O)CC[C@]3(C)OC2(C)C)C(C)(C)[C@H]1C/C=C1/C(=O)OC[C@@H]1O` (stereo partly specified), the TGI in the assay with HS 578T breast turned out to be 28.8 µM; in the assay with BT-549 breast, 4.76 µM; in the assay with NCI-H23 lung, 5.2 µM; with U251 CNS it was 6.29 µM; in the assay with SF-539 CNS, 9.18 µM; in the assay with SNB-75 CNS it was 19.3 µM.

As to `Cc1[nH]c2ccccc2c(=O)c1CC=C(Cl)Cl`, the GI50 is 24.6 µM in the assay with HS 578T breast; 47 µM with BT-549 breast; 50.6 µM in the assay on NCI-H23 lung; above 100 µM in the assay on HL-60(TB) leukemia; 39.4 µM in the assay on SF-539 CNS; 10.6 µM in the assay on SNB-75 CNS. Also, the TGI with HS 578T breast was above 100 µM; in the assay with BT-549 breast it was above 100 µM; with NCI-H23 lung, above 100 µM; in the assay with HL-60(TB) leukemia, above 100 µM; in the assay on SF-539 CNS, above 100 µM; in the assay with SNB-75 CNS it was 37.5 µM.

As for `O=c1c2ccccc2c(=O)c2c1[nH]c1c(-c3ccccc3)c(-c3ccccc3)c(=O)c12`, the GI50 is 5.67 µM in the assay with HS 578T breast; 2.09 µM in the assay with BT-549 breast; 3.72 µM with NCI-H23 lung; 2.27 µM with U251 CNS; 1.85 µM with SF-539 CNS; 15.1 µM in the assay on SNB-75 CNS. The TGI in the assay with HS 578T breast was 31.1 µM; in the assay on BT-549 breast it was 4.69 µM; with NCI-H23 lung it was 14.4 µM; in the assay with U251 CNS, 4.9 µM; with SF-539 CNS it was 3.74 µM; in the assay on SNB-75 CNS, 52.1 µM.

`C#Cc1c(I)n(C2OC(CO[Si](C)(C)C(C)(C)C)C3OC(C)(C)OC32)c(=O)[nH]c1=O` (stereo unspecified): the GI50 with HS 578T breast is 19.7 µM; in the assay with BT-549 breast, 16.4 µM; in the assay with NCI-H23 lung, 18.9 µM; in the assay on U251 CNS, 19.5 µM; in the assay on SF-539 CNS, 16.6 µM; with SNB-75 CNS, 14.4 µM. Further, the TGI stood at 66.8 µM with HS 578T breast; 31.2 µM in the assay with BT-549 breast; 39.6 µM with NCI-H23 lung; 65.8 µM with U251 CNS; 31.4 µM with SF-539 CNS; 29.4 µM in the assay with SNB-75 CNS.

Regarding `COc1cc(/C=C/c2ccc(OC)c(OC)c2)cc(OC)c1`, the TGI in the assay with HS 578T breast was 89.8 µM; in the assay with BT-549 breast, 72.3 µM; in the assay on NCI-H23 lung, 65.3 µM; with U251 CNS, 69 µM; in the assay with SF-539 CNS it was above 100 µM; in the assay on SNB-75 CNS, above 100 µM.
